Laboratory results taken from patent US20250059205A1, “Heterocyclic Compounds and Methods of Use” (AMGEN INC., priority 2021, published 2025).

Experiments:
[1] = target: His-tagged KRAS G12D protein (Homo sapiens, UniProt P01116, G12D); assay: KRAS G12D TR-FRET Assay; format: binding
[2] = target: GDP-bound KRAS protein (aa 1-169), containing both G12D and C118A amino acid substitutions (Homo sapiens, UniProt P01116, C118A/G12D); assay: KRAS G12D Coupled Nucleotide Exchange Assay; format: biochemical; conditions: 2 h compound pre-incubation
Procedure: Following compound pre-incubation, purified SOS protein (aa 564-1049) and GTP (Roche 10106399001) were added to the assay wells and incubated for an additional 30 min. […] The assay plates were then read on a PerkinElmer EnVision Multilabel Reader, using AlphaScreen® technology, and data were analyzed using a 4-parameter logistic model to calculate IC50 values.

[3] = test system: Phosphorylation of ERK1/2 in A-427 cells; assay: Phospho-ERK1/2 MSD Assay (A-427 cells); format: cell-based; conditions: Homo sapiens, A-427, 2 h, 2 h treatment, read-out: p-ERK (A427 cells) IC50
Method in brief: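 ERK1/2 phosphorylation measured by Meso Scale whole-cell lysate assay after A-427 cells were exposed to a titration of compound for 2 h at 37 °C.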

[4] = test system: Phosphorylation of ERK1/2 in AsPC-1 cells; assay: Phospho-ERK1/2 MSD Assay (AsPC-1 cells); format: cell-based; conditions: Homo sapiens, ASPC1, 2 h, 2 hours treatment, read-out: p-ERK (AsPC-1 cells) IC50
Method in brief: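 Read-out: MSD electrochemiluminescent detection of phosphorylated ERK1/2 in whole-cell lysates, fitted to a 4-parameter logistic curve for IC50. Prior to lysis, AsPC-1 cells (25,000 per well) received a 2 h compound dose-response at 37 °C.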

Sequence of His-tagged KRAS G12D protein (P01116 1-188 isoform P01116-2 G12D): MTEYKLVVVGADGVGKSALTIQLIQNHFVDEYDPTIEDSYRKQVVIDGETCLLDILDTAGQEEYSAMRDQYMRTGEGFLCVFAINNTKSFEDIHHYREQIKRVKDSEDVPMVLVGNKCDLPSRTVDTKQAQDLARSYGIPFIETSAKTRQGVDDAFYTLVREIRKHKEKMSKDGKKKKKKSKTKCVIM
Sequence of GDP-bound KRAS protein (aa 1-169), containing both G12D and C118A amino acid substitutions (P01116 1-169 isoform P01116-2 G12D/C118A): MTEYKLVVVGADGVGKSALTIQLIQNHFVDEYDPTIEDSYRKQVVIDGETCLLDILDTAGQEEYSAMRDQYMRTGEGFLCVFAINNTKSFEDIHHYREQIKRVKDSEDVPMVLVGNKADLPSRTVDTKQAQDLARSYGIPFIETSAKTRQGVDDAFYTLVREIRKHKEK

Compound | IC50 [1] [nM] | Avg 2 h Coupled Exchange IC50 [2] [nM] | IC50 [3] [nM] | IC50 [4] [nM]
CCc1c(F)ccc2cccc(-c3ccc4c(N5C[C@H]6CC[C@@H](C5)N6)nc(OC[C@@]56CCCN5C[C@H](F)C6)nc4c3F)c12 [Example 90, 4-((1R,5S)-3,8-diazabicyclo[3.2. 1]octan-3-yl)-7-(8-ethyl-7-fluoronaphthalen-1-yl)-8-fluoro-2-(((2R,7aS)-2-fluorotetrahydro-1H-pyrrolizin-7a(5H)-yl)methoxy) quinazoline] | 4 | 3 | 454 | 790
CCc1c(F)ccc2cc(O)cc(-c3ccc4c(N5C[C@H]6CC[C@@H](C5)N6)nc(OC[C@@]56CCCN5C[C@H](F)C6)nc4c3C)c12 [Example 95, 4-(4-((1R,5S)-3,8-diazabicyclo[3.2. 1]octan-3-yl)-2-(((2R,7aS)-2-fluorotetrahydro-1H-pyrrolizin-7a(5H)-yl)methoxy)-8-methylquinazolin-7-yl)-5-ethyl-6-fluoronaphthalen-2-ol] | 10 | 10 | 199 | 230
Cc1c(-c2cc(O)cc3ccc(F)c(F)c23)ccc2c(N3C[C@H]4CC[C@@H](C3)N4)nc(OC[C@@]34CCCN3C[C@H](F)C4)nc12 [Example 97, 4-(4-((1R,5S)-3,8-diazabicyclo[3.2. 1]octan-3-yl)-2-(((2R,7aS)-2-fluorotetrahydro-1H-pyrrolizin-7a(5H)-yl)methoxy)-8-methylquinazolin-7-yl)-5,6-difluoronaphthalen-2-ol] | 6 | 6 | 69 | 178

Second part, the compound after the results:

IC50 [1] [nM] | Avg 2 h Coupled Exchange IC50 [2] [nM] | IC50 [3] [nM] | IC50 [4] [nM] | Compound
24 | 33 | 880 | 829 | CCc1c(F)ccc2cc(O)cc(-c3ccc4c(N5C[C@@H]6CC[C@H]5CN6)nc(OC[C@@]56CCCN5C[C@H](F)C6)nc4c3C)c12 [Example 92, 4-(4-((1S,4S)-2,5-diazabicyclo[2.2. 2]octan-2-yl)-2-(((2R,7aS)-2-fluorotetrahydro-1H-pyrrolizin-7a(5H)-yl)methoxy)-8-methylquinazolin-7-yl)-5-ethyl-6-fluoronaphthalen-2-ol]
5 | 6 | 6 | 9 | CCc1c(F)ccc2cc(O)cc(-c3c(F)cc4c(N5C[C@@H]6CC[C@H]5CN6)nc(OC[C@@]56CCCN5C[C@H](F)C6)nc4c3F)c12 [Example 93, 4-(4-((1S,4S)-2,5-diazabicyclo[2.2. 2]octan-2-yl)-6,8-difluoro-2-(((2R,7aS)-2-fluorotetrahydro-1H-pyrrolizin-7a(5H)-yl)methoxy)quinazolin-7-yl)-5-ethyl-6-fluoronaphthalen-2-ol]
5 | 4 | 110 | 152 | CCc1c(F)ccc2cc(O)cc(-c3c(F)cc4c(N5C[C@@H]6CC[C@H]5CN6)nc(OC[C@@H]5C[C@@H](F)CN5C)nc4c3F)c12 [Example 94, 4-(4-((1S,4S)-2,5-diazabicyclo[2.2. 2]octan-2-yl)-6,8-difluoro-2-(((2S,4R)-4-fluoro-1-methylpyrrolidin-2-yl)methoxy)quinazolin-7-yl)-5-ethyl-6-fluoronaphthalen-2-ol]
7 | 5 | 95 | 213 | Cc1c(-c2cc(O)cc3cccc(Cl)c23)ccc2c(N3C[C@@H]4CC[C@H]3CN4)nc(OC[C@@]34CCCN3C[C@H](F)C4)nc12 [Example 96, 4-(4-((1S,4S)-2,5-diazabicyclo[2.2. 2]octan-2-yl)-2-(((2R,7aS)-2-fluorotetrahydro-1H-pyrrolizin-7a(5H)-yl)methoxy)-8-methylquinazolin-7-yl)-5-chloronaphthalen-2-ol]
